Data set [1] can be described thus: Entry-into-man studies in healthy subjects (Almeida I, Almeida II), plasma and urine pharmacokinetics. The data set is classed as in vivo, human. The source says: Studies in humans have shown that, after oral administration, eslicarbazepine acetate appears to be rapidly and extensively metabolized to the active metabolite eslicarbazepine and, in a minor extent, to R-licarbazepine. See Silveira et al., “BIA 2-093 Pharmacokinetics in Healthy Elderly Subjects,” Epilepsia, 45 (suppl. 3), 157 (2004). […] See Almeida I; Almeida, L. & Soares-da-Silva, P., “Safety, Tolerability and Pharmacokinetic Profile of BIA 2-093, a Novel Putative Antiepileptic Agent, during First Administration to Humans,” Drugs R&D, 4, 269-284 (2003) (herein referred to as “Almeida II”).
The inventors performed entry-into-man studies in healthy subjects, the results of which they described in the Almeida I and Almeida II articles, both of which are hereby incorporated by reference. In these studies, the healthy subjects received a single oral dose of eslicarbazepine acetate wherein the dose ranged from 20 mg to 1200 mg (see Almeida II), and multiple daily-doses of eslicarbazepine acetate ranging from 200 mg twice-daily to 1200 mg once-daily (see Almeida I). Further studies (not yet published) by the inventors have investigated higher doses of eslicarbazepine acetate, including, for example, doses ranging up to 2400 mg once-daily.

The nature of data set [2]: Study in epileptic patients: trough plasma concentrations of BIA 2-005. In kind it is in vivo, human. The text has this: This clinical trial was a double-blind, randomized, placebo-controlled study performed by 20 centers in Croatia, Czech Republic, Germany, Lithuania and Poland. The stated objectives of the study were to assess the efficacy and safety of BIA 2-093 as adjunctive therapy in patients with refractory partial epilepsy. In total, 143 patients aged 18-65 years with at least 4 partial-onset seizures per month in spite of treatment with 1 or 2 antiepileptic drugs (AEDs) (e.g., phenytoin, valproate, primidone, phenobarbital, lamotrigine, gabapentin, topiramate or clonazepam) were randomly assigned to one of three groups: treatment with placebo (n=47), BIA 2-093 once-daily (n=50), or BIA 2-093 twice-daily (n=46), during 12 weeks (plus 1 week of tapering off). For the first 4 weeks, daily dose was 400 mg. Then, daily doses were increased to 800 mg (weeks 5-8), and finally to 1200 mg (weeks 9-12). Tablets with strengths of 200 mg, 400 mg, and 600 mg eslicarbazepine acetate and placebo tablets were manufactured by BIAL (S. Mamede do Coronado, Portugal) in accordance with Good Manufacturing Practice. The assay plasma to determine the concentration of BIA 2-005 was performed with a non-chiral method using isocratic liquid chromatography (LC) with single quadrupole mass spectrometric detection (MS), as described herein. See, e.g., Almeida I and Almeida II.
Plasma/serum samples for the “trough” (pre-dose) levels of BIA 2-005 and concomitant AEDs were collected at all visits but V5 (post-study visit). The objective was to characterize the influence of eslicarbazepine acetate on the pharmacokinetic behavior of the concomitant AEDs (e.g., phenytoin, valproate, primidone, phenobarbital, lamotrigine, gabapentin, topiramate, and clonazepam).

Data set [3] can be described thus: Trial B: pharmacokinetics following single doses in healthy young male subjects. In kind it is in vivo, human. As for the experimental part: (§1) This human pharmacology trial was a study to determine the pharmacokinetics of eslicarbazepine acetate following single and repeated doses. The study integrated the results of three double-blind, randomized, placebo-controlled trials. To measure the pharmacokinetics of eslicarbazepine acetate following single doses, oral single doses of eslicarbazepine acetate ranging from 20 mg to 2400 mg were administered to healthy young male subjects (6 subjects per dose). The pharmacokinetics of eslicarbazepine acetate following repeated doses were measured by administering repeated oral doses ranging from 400 mg to 2400 mg of eslicarbazepine acetate to healthy young male subjects (6 subjects per dose) over a period of 8 days. Analytical test methods and experimental procedures were similar to those described for Trial A above.

A short description of data set [4]: Trial B: pharmacokinetics following repeated once-daily doses over 8 days in healthy young male subjects. The data set is classed as in vivo, human. Conditions: for tmax: male, human, plasma, oral, read-out: Median tmax. As for the experimental part: as §1
Data set [5] is described as follows: Trial A: steady-state pharmacokinetics of once-daily and twice-daily regimens in healthy volunteers. In kind it is in vivo, human. Conditions: arithmetic mean; for AUC0-t / AUC0-∞ / Cmax / t1/2 / tmax: after last dose (8 days). As for the experimental part:
This human pharmacology trial was a study to investigate the steady-state pharmacokinetics of once-daily and twice-daily regimens of eslicarbazepine acetate in healthy subjects. The study was a single center, open-label, randomized, two-way crossover study in 12 healthy volunteers (6 males and 6 females) that consisted of two 8-day treatment periods separated by a washout period of 10-15 days. […] Tablets with a strength of 450 mg of eslicarbazepine acetate, manufactured by BIAL (S. Mamede do Coronado, Portugal) in accordance with Good Manufacturing Practice, were used.
Blood samples for drug plasma assays were taken at the following times: […]
Blood samples were drawn either by direct venipuncture or via an intravenous catheter into lithium heparin tubes and centrifuged at approximately 1500 g for 10 minutes at 4° C. The resulting plasma was separated into 2 equal aliquots of 1 mL and stored at −20° C. until required for analysis.
Plasma concentrations of eslicarbazepine acetate, eslicarbazepine, and R-licarbazepine were determined using isocratic liquid chromatography (LC) with single quadrupole mass spectrometric detection (MS).
The method involved the addition of 500 μL of approximately 0.5 μg/mL of 10,11-dihydrocarbamazepine (internal standard prepared in acetonitrile:water, 3:97, v:v) to 250 μL of plasma (centrifuged at 1800 rpm, prior to analysis) in a polypropylene tube. After vortex mixing for 10 seconds, the mixture was transferred to a Schleicher and Schuell C18/100 mg 96 well solid phase extraction plate. Each well was preconditioned with 800 μL methanol, followed by 800 μL acetonitrile and 800 μL acetonitrile:water (3:97, v:v) prior to application of the total sample volume. Each polypropylene tube was then washed with 500 μL acetonitrile:water (3:97, v:v) and the washings transferred to the respective well. The compounds were eluted into a collection plate with 750 μL acetonitrile and the extract evaporated to dryness under oxygen-free nitrogen, at 40° C. All solid phase extraction manipulations were undertaken using the Tomtec QUADRA 96® Model 320 system and a vacuum was applied at each elution step. The final extract was reconstituted in 100 μL of water:methanol (90:10, v:v) and mixed. The collection plate was then centrifuged at approximately 3000 rpm (at approximately 4° C., for approximately 10 minutes) prior to analysis. An aliquot of the final extract (10 μL) was injected onto the LC-MS system.
The LC-MS system used in the analysis consisted of a Perkin Elmer series 200 micro pump, a Perkin Elmer series 200 autosampler, and a Perkin Elmer/Sciex API 150EX single quadrupole mass spectrometer fitted with a Turbo IonSpray® source. Separation was achieved using a LichroCART 250-4 ChiraDex column (β-cyclodextrin, 5 μm), a LichroCART 4-4 ChiraDex column guard column (β-cyclodextrin, 5 μm), a Jones Chromatography 7971 column heater at 50° C., a mobile phase A (0.2 mM sodium acetate, aq) and a mobile phase B (0.2 mM sodium acetate, MeOH). The MS detector was operated in positive ion mode with mass transitions for BIA 2-093, eslicarbazepine, R-licarbazepine, and the internal standard of 319.16 amu (200 ms), 277.08 amu (200 ms), 277.08 amu (200 ms) and 261.05 amu (200 ms), respectively. The limit of quantification of the assay was 10 ng/mL for eslicarbazepine acetate and 100 ng/mL for eslicarbazepine and R-licarbazepine.
Eslicarbazepine acetate, (S)-(−)-10-acetoxy-10,11-dihydro-5H-dibenz/b,f/azepine-5-carboxamide; eslicarbazepine, (S)-(+)-10,11-dihydro-10-hydroxy-5H dibenz/b,f/azepine-5-carboxamide; and R-licarbazepine, (R)-(−)-10,11-dihydro-10-hydroxy-5H dibenz/b,f/azepine-5-carboxamide, were synthesized in the Laboratory of Chemistry, BIAL, with purities>99.5%. The internal standard, 10,11-dihydrocarbamazepine was supplied by Sigma-Aldrich (St. Louis, Mo.).
The pharmacokinetic parameters were derived from non-compartmental analysis using WinNonlin (Version 4.0, Pharsight Corporation, Mountain View, Calif.). […]

The nature of data set [6]: Metabolic profile in liver microsomes, chiral analysis. The data set is classed as in vitro ADME. Conditions: liver microsomes from rats, dogs, monkeys and humans, not the R(−) form.
The test system of data set [7] is refractory partial epilepsy (partial-onset seizures). Briefly: Study in epileptic patients: efficacy as adjunctive therapy. The data set is classed as in vivo, human. Conditions: once-daily group compared with the other groups. As for the experimental part: This clinical trial was a double-blind, randomized, placebo-controlled study performed by 20 centers in Croatia, Czech Republic, Germany, Lithuania and Poland. The stated objectives of the study were to assess the efficacy and safety of BIA 2-093 as adjunctive therapy in patients with refractory partial epilepsy. […] For the first 4 weeks, daily dose was 400 mg. Then, daily doses were increased to 800 mg (weeks 5-8), and finally to 1200 mg (weeks 9-12). Tablets with strengths of 200 mg, 400 mg, and 600 mg eslicarbazepine acetate and placebo tablets were manufactured by […] do Coronado, Portugal) in accordance with Good Manufacturing Practice. […] See, […] and Almeida II. The proportion of patients with a 50% or greater reduction in seizure frequency in the treatment period compared to the baseline period in the intention-to-treat (ITT) population (n=143) was the primary efficacy endpoint. […] The proportion of responders in the once-daily group (54%) was also higher than in the twice-daily (41%) group. […] At this dose level, no significant difference was found between the twice-daily and the placebo groups. Secondary endpoints include the reduction in total seizure frequency, proportion of seizure-free patients, distribution of responders, comparison of once and twice daily regimens, and investigator's and patient's global evaluation.

The test system of data set [8] is voltage-gated sodium channel (VGSC). Conditions: compared with carbamazepine; cited from earlier work.
Setting [9] is: single oral dose of 1200 mg eslicarbazepine acetate.
[10] abbreviates: multiple oral dose of 900 mg eslicarbazepine acetate once-daily.
The mark [11] stands for this setting: multiple oral dose of 900 mg eslicarbazepine acetate twice-daily.

Broadly, the Cmax is the highest concentration seen after dosing.

For `NC(=O)N1c2ccccc2CC(O)c2ccccc21` (stereo not drawn) [BIA 2-005], the “mean renal clearance from plasma” value in data set [1] (BIA 2-005, healthy subjects) was 20 to 30 mL/min. Also, in data set [1] (BIA 2-005 after oral eslicarbazepine acetate, healthy subjects), the “extent of systemic exposure” value is “approximately dose-proportional”. For the same compound, the “trough plasma concentration, mean (sd)” value in data set [2] (400 mg/day eslicarbazepine acetate, b.i.d. group) was 4.9 (2.3) μg/mL; in data set [2] (400 mg/day eslicarbazepine acetate, o.d. group) it was 4.0 (3.2) μg/mL; in data set [2] (800 mg/day eslicarbazepine acetate, b.i.d. group), 13.5 (9.6) μg/mL; in data set [2] (800 mg/day eslicarbazepine acetate, o.d. group), 10.7 (7.0) μg/mL; in data set [2] (1200 mg/day eslicarbazepine acetate, b.i.d. group), 15.5 (8.8) μg/mL; in data set [2] (1200 mg/day eslicarbazepine acetate, o.d. group), 14.6 (8.8) μg/mL.

Regarding `NC(=O)N1c2ccccc2C[C@H](O)c2ccccc21` [eslicarbazepine, (S)-(+)-10,11-dihydro-10-hydroxy-5H dibenz/b,f/azepine-5-carboxamide], the AUC0-t in data set [3] (male, human, plasma, single oral dose of 2400 mg eslicarbazepine acetate, read-out: Mean AUC0-24 h) was determined as 446000 ng·h/mL. Besides, the “Mean apparent t1/2” value in data set [3] (single oral dose of 20 mg eslicarbazepine acetate) was found to be 9.1 h; in data set [3] (single oral dose of 2400 mg eslicarbazepine acetate) it was 11.1 h. Besides, the Median tmax in data set [3] (single oral dose of 400 mg eslicarbazepine acetate), in data set [3] (single oral dose of 600 mg eslicarbazepine acetate) and in data set [3] (setting [9]) was 4 h throughout. Further, in data set [3] (setting [9]), the “Mean AUC0-24 h” value is on record as 285,700 ng · h/mL. For the same compound, the “Mean Cmax” value in data set [4] (last dose of 8-day repeated 800 mg o.d. eslicarbazepine acetate) is reported as 18,700 ng/mL. For the same compound, the tmax in data set [4] (last dose of 8-day repeated 1800 mg o.d. eslicarbazepine acetate) and in data set [4] (last dose of 8-day repeated 2400 mg o.d. eslicarbazepine acetate) was 2 h in each case.

Regarding `NC(=O)N1c2ccccc2C[C@@H](O)c2ccccc21` [R-licarbazepine, (R)-(−)-10,11-dihydro-10-hydroxy-5H dibenz/b,f/azepine-5-carboxamide], in data set [5] (setting [10]), the AUC0-t is reported as 19,600 ng · h/mL, the “AUC0-∞” value worked out at 23989 ng·h/mL, the Cmax is listed as 674 ng/mL and the t1/2 is 15.0 h. In data set [5] (setting [10]), this compound registered a tmax of 9.42 h. Moreover, the AUC0-τ in data set [5] (multiple oral dose of 900 mg eslicarbazepine acetate once-daily, dosing interval 24 hours) stood at 13397 ng·h/mL. In data set [5] (setting [11]), the AUC0-t is 19,661 ng · h/mL, the “AUC0-∞” value stood at 23807 ng·h/mL, the Cmax was 718 ng/mL and the t1/2 stood at 14.8 h. The tmax in data set [5] (setting [11]) is recorded as 6.40 h. The AUC0-τ in data set [5] (multiple oral dose of 900 mg eslicarbazepine acetate twice-daily, dosing interval 12 hours) turned out to be 7783 ng·h/mL.

As for `CC(=O)O[C@H]1Cc2ccccc2N(C(N)=O)c2ccccc21` [eslicarbazepine acetate, (S)-(−)-10-acetoxy-10,11-dihydro-5H-dibenz/b,f/azepine-5-carboxamide], in data set [6], the metabolite formed result is listed as “S(+) enantiomer of licarbazepine”. Also, in data set [7], the “assessment of efficacy by the investigator (CGI) and of acceptability by patient” value is “rated best”. Moreover, the “affinity for the resting state of the sodium channel, lower than that of carbamazepine” value in data set [8] was “about 3 fold”.

The values above are taken from patent US11364247B2, “Methods of treatment of partial onset seizures using eslicarbazepine acetate” (BIAL-PORTELA & CA S.A., priority 2005, dated 2022).
